# Values of other authors as cited in patent US20250002910A1, “TREATMENT OF COMPLEMENT-MEDIATED DISORDERS” (Apellis Pharmaceuticals, Inc., priority 2021, published 2025).
# System: complement activation
# Settings: relative to compstatin amidated at the C-terminus; published data
row,Substance,Activity over compstatin [x more]
1,Ac-ICV(1-Nal)QDWGAHRCT-COOH [AcV4(1-Nal)/H9A-OH],30
2,Ac-ICV(2-IgI)QDWGAHRCT-CONH2 [Ac-V42lgl/H9A],39
3,Ac-ICV(2-IgI)QDWGAHRCT-COOH [Ac-V42lgl/H9A-OH],37
4,Ac-ICV(2-Nal)QDWGAHRCT-CONH2 [Ac-V4(2-Nal)/H9A],99
5,Ac-ICV(2-Nal)QDWGAHRCT-COOH [AcV4(2-Nal)/H9A-OH],38
6,Ac-ICV(Bpa)QDWGAHRCT-CONH2 [Ac-V4(Bpa)/H9A],86
7,Ac-ICV(Bpa)QDWGAHRCT-COOH [Ac-V4(Bpa)/H9A-OH],49
8,Ac-ICVDhtQDWGAHRCT-COOH [Ac-V4Dht/H9A-OH],5
9,Ac-ICVVQDWGHHRCT-CONH2 [Ac-compstatin],3
10,Ac-ICVWQD(5fW)GAHRCT-CONH2 [Ac-V4W/W7(5fW)/H9A],121
11,Ac-ICVWQDWGAHRCT-CONH2 (Ac-ICVWQDWGAHRCT-NH2; not fully specified (bridges); printed as Ac-ICVWQDWGAHRCT-CONH2; cysteine pairing not given here) [Ac-V4W/H9A],45
12,Ac-ICVWQDWGAHRCdT-COOH [Ac-V4W/H9A/T13dT-OH],55
13,Ac-ICVYQDWGAHRCT-CONH2 [Ac-V4Y/H9A],14
14,H-GICV(6fW)QD(6fW)GAHRCTN-COOH [+G/V4(6fW)/W7(6fW)H9A+N-OH],126
